The source of these data is patent publication US12606541B2, “PPARg modulators and methods of use” (Eisai R&D Management Co., Ltd., priority 2020, dated 2026).

The target in the test is T1, His6-TEV-PPARγ-(234-505) (Homo sapiens, UniProt P37231).
T1 construct: The His6-TEV-PPARγ-(234-505) protein for assay was expressed and purified; TEV cleavage site (N); made in house
T1 sequence (P37231 234-505): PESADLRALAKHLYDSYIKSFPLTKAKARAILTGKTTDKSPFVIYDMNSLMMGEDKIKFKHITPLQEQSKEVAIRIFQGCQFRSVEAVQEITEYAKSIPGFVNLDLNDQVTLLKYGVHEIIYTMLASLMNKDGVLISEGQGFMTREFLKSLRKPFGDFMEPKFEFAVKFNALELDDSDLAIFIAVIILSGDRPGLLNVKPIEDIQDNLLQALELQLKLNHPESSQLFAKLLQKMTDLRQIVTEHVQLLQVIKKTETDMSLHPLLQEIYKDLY
Briefly: TR-FRET Assay to Measure Co-R Peptide Recruitment to PPARγ. It counts as biochemical. The conditions noted are these: Co-R peptide recruitment to PPARγ; read-out: TR-FRET AC50. As to the method:
TR-FRET Assay to Measure Co—R Peptide Recruitment to PPARγ
The 2× detection solution contained anti-6×His-Terbium antibody (CisBio) and FITC labeled Co—R peptide (SMRT-ID2 from New England Peptide) at final concentrations of 5 and 200 nM respectively.
In these assay plates, the positive control in column 24 contained 500 nM (final) T0070907 and the negative control in column 23 contained an identical volume of DMSO. Then, 5 μL of 2+ protein working stock or controls were added to the plate and incubated for 20 minutes at room temperature. Reagents additions were performed with either a Combi (Thermo) or Mantis (Formulatory) pipetting device. The incubation was followed by addition of 5 μL of the 2× detection solution. Plates were covered, centrifuged, and incubated for an additional hour. The TR-FRET data was recorded with an Envision plate reader (Perkin Elmer), using settings recommended by Thermo Fisher. The TR-FRET signal of the positive and negative control's recruitment of FITC-Co—R peptide was used to normalize the TR-FRET signal to percent response and to determine the assay Z prime. Experiments were performed in triplicate and analyzed in GraphPad Prism 7.
On the technique in general: TR-FRET usually uses a lanthanide donor and a delayed reading to cut background.
In the case of `COc1cc(-c2cc(C(=O)N3CCC(C(=O)NCC4CCCCO4)CC3)n[nH]2)c(Cl)cn1` (stereo not shown) [1-[5-(5-chloro-2-methoxypyridin-4-yl)-1H-pyrazole-3-carbonyl]-N-[(oxan-2-yl)methyl]piperidine-4-carboxamide], the AC50 – broadly, the concentration at which the activity in the assay is half-maximal – is more than 1 µM.
Under `Cc1cccc(C)c1NC(=O)C1CCN(C(=O)c2cc(-c3ccncc3)[nH]n2)CC1` [N-(2,6-dimethylphenyl)-1-[5-(pyridin-4-yl)-1H-pyrazole-3-carbonyl]piperidine-4-carboxamide] stands more than 1 µM.
The result for `COc1cc(-c2cc(C(=O)N3CCC(C(=O)N[C@H]4CC[C@H](C)CC4)CC3)n[nH]2)ccn1` reads more than 1 µM.
Under `C[C@H](NC(=O)C1CCN(C(=O)c2cc(-c3ccncc3)[nH]n2)CC1)c1ccccc1` [N-[(1S)-1-phenylethyl]-1-[5-(pyridin-4-yl)-1H-pyrazole-3-carbonyl]piperidine-4-carboxamide] stands more than 1 µM; under `COc1cc(-c2cc(C(=O)N3CCC(C(=O)N[C@@H]4C[C@@H](C)Oc5ccccc54)CC3)n[nH]2)c(Cl)cn1` [1-[5-(5-chloro-2-methoxypyridin-4-yl)-1H-pyrazole-3-carbonyl]-N-[(2R,4R)-2-methyl-3,4-dihydro-2H-1-benzopyran-4-yl]piperidine-4-carboxamide], more than 1 µM; under `CCOCCNC(=O)C1CCN(C(=O)c2cc(-c3ccncc3)[nH]n2)CC1` [N-(2-ethoxyethyl)-1-[5-(pyridin-4-yl)-1H-pyrazole-3-carbonyl]piperidine-4-carboxamide], more than 1 µM.
For the compound `COc1cc(-c2cc(C(=O)N3CCC(C(=O)Nc4cc(C(F)(F)F)no4)CC3)n[nH]2)c(Cl)cn1` [1-[5-(5-chloro-2-methoxypyridin-4-yl)-1H-pyrazole-3-carbonyl]-N-[3-(trifluoromethyl)-1,2-oxazol-5-yl]piperidine-4-carboxamide], the AC50 is more than 1 µM.
Under `O=C(Nc1ccc(Cl)cc1)C1CCN(C(=O)c2cc(-c3ccncc3)[nH]n2)CC1` [N-(4-chlorophenyl)-1-[5-(pyridin-4-yl)-1H-pyrazole-3-carbonyl]piperidine-4-carboxamide] stands more than 1 µM.
Under `O=C(NCCc1ccccc1)C1CCN(C(=O)c2cc(-c3ccncc3)[nH]n2)CC1` [N-(2-phenylethyl)-1-[5-(pyridin-4-yl)-1H-pyrazole-3-carbonyl]piperidine-4-carboxamide] stands more than 1 µM; under `COc1cc(-c2cc(C(=O)N3CCC(C(=O)NCc4ccccc4C#N)CC3)n[nH]2)c(Cl)cn1` [1-[5-(5-chloro-2-methoxypyridin-4-yl)-1H-pyrazole-3-carbonyl]-N-[(2-cyanophenyl)methyl]piperidine-4-carboxamide], more than 1 µM.
Under `Cc1cc(CNC(=O)C2CCN(C(=O)c3cc(-c4ccncc4)[nH]n3)CC2)sc1C` [N-[(4,5-dimethylthiophen-2-yl)methyl]-1-[5-(pyridin-4-yl)-1H-pyrazole-3-carbonyl]piperidine-4-carboxamide] stands more than 1 µM; under `COc1cc(-c2cc(C(=O)N3CCC(C(=O)NC(C)(C)c4ccccc4)CC3)n[nH]2)c(Cl)cn1` [1-[5-(5-chloro-2-methoxypyridin-4-yl)-1H-pyrazole-3-carbonyl]-N-(2-phenylpropan-2-yl)piperidine-4-carboxamide], more than 1 µM; under `COc1cccc(CNC(=O)C2CCN(C(=O)c3cc(-c4ccncc4)[nH]n3)CC2)c1OC` [N-[(2,3-dimethoxyphenyl)methyl]-1-[5-(pyridin-4-yl)-1H-pyrazole-3-carbonyl]piperidine-4-carboxamide], more than 1 µM.
As to `COc1cc(-c2cc(C(=O)N3CCC(C(=O)NC4(C)CCOCC4)CC3)n[nH]2)c(Cl)cn1` [1-[5-(5-chloro-2-methoxypyridin-4-yl)-1H-pyrazole-3-carbonyl]-N-(4-methyloxan-4-yl)piperidine-4-carboxamide], the AC50 is more than 1 µM.
The result for `COc1cc(-c2cc(C(=O)N3CCC(C(=O)NCc4cnc(C)cn4)CC3)n[nH]2)c(Cl)cn1` [1-[5-(5-chloro-2-methoxypyridin-4-yl)-1H-pyrazole-3-carbonyl]-N-[(5-methylpyrazin-2-yl)methyl]piperidine-4-carboxamide] reads more than 1 µM; that for `COc1cc(-c2cc(C(=O)N3CCC4(C(=O)NCc5cccc(Cl)c5)CC4C3)n[nH]2)c(Cl)cn1` (stereo not shown) [3-[5-(5-chloro-2-methoxypyridin-4-yl)-1H-pyrazole-3-carbonyl]-N-[(3-chlorophenyl)methyl]-3-azabicyclo[4.1.0]heptane-6-carboxamide], more than 1 µM; that for `O=C(N[C@@H]1CCN(Cc2ccccc2)C1)C1CCN(C(=O)c2cc(-c3cccnc3)[nH]n2)CC1` [N-[(3R)-1-benzylpyrrolidin-3-yl]-1-[5-(pyridin-3-yl)-1H-pyrazole-3-carbonyl]piperidine-4-carboxamide], more than 1 µM.
Under `COc1ccc(NC(=O)C2CCN(C(=O)c3cc(-c4ccncc4)[nH]n3)CC2)c(C)c1` [N-(4-methoxy-2-methylphenyl)-1-[5-(pyridin-4-yl)-1H-pyrazole-3-carbonyl]piperidine-4-carboxamide] stands more than 1 µM.
Under `COc1cc(Cl)ccc1CNC(=O)C1CCN(C(=O)c2cc(-c3ccncc3)[nH]n2)CC1` [N-[(4-chloro-2-methoxyphenyl)methyl]-1-[5-(pyridin-4-yl)-1H-pyrazole-3-carbonyl]piperidine-4-carboxamide] stands more than 1 µM; under `COc1cc(-c2cc(C(=O)N3CCC(C(=O)NCc4ccc5[nH]cnc5c4)CC3)n[nH]2)c(Cl)cn1` [N-[(1H-1,3-benzodiazol-5-yl)methyl]-1-[5-(5-chloro-2-methoxypyridin-4-yl)-1H-pyrazole-3-carbonyl]piperidine-4-carboxamide], more than 1 µM.
Turning to `COc1cc(-c2cc(C(=O)N3CCC(C(=O)NCC4OCC4(C)C)CC3)n[nH]2)c(Cl)cn1` (stereo not shown) [1-[5-(5-chloro-2-methoxypyridin-4-yl)-1H-pyrazole-3-carbonyl]-N-[(3,3-dimethyloxetan-2-yl)methyl]piperidine-4-carboxamide], the AC50 is more than 1 µM.
The result for `O=C(NCc1ccc(Cl)cc1)C1CCN(C(=O)c2cc(-c3ccncc3)[nH]n2)CC1` [N-[(4-chlorophenyl)methyl]-1-[5-(pyridin-4-yl)-1H-pyrazole-3-carbonyl]piperidine-4-carboxamide] reads more than 1 µM.
Under `O=C(NC1CCCC1)C1CCN(C(=O)c2cc(-c3ccncc3)[nH]n2)CC1` [N-cyclopentyl-1-[5-(pyridin-4-yl)-1H-pyrazole-3-carbonyl]piperidine-4-carboxamide] stands more than 1 µM; under `CC(C)CN(C)C(=O)C1CCN(C(=O)c2cc(-c3ccncc3)[nH]n2)CC1` [N-methyl-N-(2-methylpropyl)-1-[5-(pyridin-4-yl)-1H-pyrazole-3-carbonyl]piperidine-4-carboxamide], more than 1 µM.
In the case of `O=C(NCc1nc(C2CC2)cs1)C1CCN(C(=O)c2cc(-c3ccncc3)[nH]n2)CC1` [N-[(4-cyclopropyl-1,3-thiazol-2-yl)methyl]-1-[5-(pyridin-4-yl)-1H-pyrazole-3-carbonyl]piperidine-4-carboxamide], the AC50 is more than 1 µM.
Under `COc1ccc(C)cc1CNC(=O)C1CCN(C(=O)c2cc(-c3ccncc3)[nH]n2)CC1` [N-[(2-methoxy-5-methylphenyl)methyl]-1-[5-(pyridin-4-yl)-1H-pyrazole-3-carbonyl]piperidine-4-carboxamide] stands more than 1 µM; under `CC1CCC(NC(=O)C2CCN(C(=O)c3cc(-c4ccncc4F)[nH]n3)CC2)CC1` (stereo not shown) [1-[5-(3-fluoropyridin-4-yl)-1H-pyrazole-3-carbonyl]-N-(4-methylcyclohexyl)piperidine-4-carboxamide], more than 1 µM.
Under `COc1cc(-c2cc(C(=O)N3CCC(C(=O)Nc4cc(C(F)(F)F)ccn4)CC3)n[nH]2)c(Cl)cn1` [1-[5-(5-chloro-2-methoxypyridin-4-yl)-1H-pyrazole-3-carbonyl]-N-[4-(trifluoromethyl)pyridin-2-yl]piperidine-4-carboxamide] stands more than 1 µM; under `C[C@@H](NC(=O)C1CCN(C(=O)c2cc(-c3ccncc3)[nH]n2)CC1)c1ccc(C(C)(C)C)cc1` [N-[(1R)-1-(4-tert-butylphenyl)ethyl]-1-[5-(pyridin-4-yl)-1H-pyrazole-3-carbonyl]piperidine-4-carboxamide], more than 1 µM.
For `Cc1csc(CNC(=O)C2CCN(C(=O)c3cc(-c4ccncc4)[nH]n3)CC2)c1` [N-[(4-methylthiophen-2-yl)methyl]-1-[5-(pyridin-4-yl)-1H-pyrazole-3-carbonyl]piperidine-4-carboxamide], the AC50 is more than 1 µM.
The result for `COc1cccc(CNC(=O)C2CCN(C(=O)c3cc(-c4ccncc4)[nH]n3)CC2)c1` [N-[(3-methoxyphenyl)methyl]-1-[5-(pyridin-4-yl)-1H-pyrazole-3-carbonyl]piperidine-4-carboxamide] reads more than 1 µM.
